The compounds below were run against T1, P70S6K (Homo sapiens, UniProt P23443, T412E) (assay: P70S6K enzyme assay). Conditions: P70S6K T412E mutant 3 nM, 24 μM ATP, FITC-AHA-AKRRRLSSLRA-OH substrate, 90 min at 25° C.; read-out: IC50p70S6K.
T1 construct: purchased Millipore
Format: biochemical
Experimental: P70S6K inhibitor compounds are diluted and plated in 96 well plates. A reaction mixture including the following components is then added to the compound plate to initiate the enzyme reaction; P70S6K (3 nM, T412E mutant, Millipore) is mixed with 24 μM ATP in an assay buffer containing 100 mM Hepes (pH 7.5), 5 mM MgCl2, 1 mM DTT, 0.015% Brij and 1 μM of the substrate peptide FITC-AHA-AKRRRLSSLRA-OH (derived from the S6 ribosomal protein sequence, FITC=fluorescein isothiocyanate, AHA=6-aminohexanoic acid). The reaction is incubated for 90 min at 25° C., before the addition of 10 mM EDTA to stop the reaction. The proportion of substrate and product (phosphorylated) peptide is analyzed on a Caliper Life Sciences Lab Chip 3000, using a pressure of −1.4 psi, and upstream and downstream voltages of −3000 and −700 respectively. Product peaks are resolved before substrate peaks on the resulting chromatograms.
To assess the inhibitory potential of the compounds, IC50-values were determined, as shown in Chemical Synthesis section above.

T1 sequence (P23443 whole entry T412E): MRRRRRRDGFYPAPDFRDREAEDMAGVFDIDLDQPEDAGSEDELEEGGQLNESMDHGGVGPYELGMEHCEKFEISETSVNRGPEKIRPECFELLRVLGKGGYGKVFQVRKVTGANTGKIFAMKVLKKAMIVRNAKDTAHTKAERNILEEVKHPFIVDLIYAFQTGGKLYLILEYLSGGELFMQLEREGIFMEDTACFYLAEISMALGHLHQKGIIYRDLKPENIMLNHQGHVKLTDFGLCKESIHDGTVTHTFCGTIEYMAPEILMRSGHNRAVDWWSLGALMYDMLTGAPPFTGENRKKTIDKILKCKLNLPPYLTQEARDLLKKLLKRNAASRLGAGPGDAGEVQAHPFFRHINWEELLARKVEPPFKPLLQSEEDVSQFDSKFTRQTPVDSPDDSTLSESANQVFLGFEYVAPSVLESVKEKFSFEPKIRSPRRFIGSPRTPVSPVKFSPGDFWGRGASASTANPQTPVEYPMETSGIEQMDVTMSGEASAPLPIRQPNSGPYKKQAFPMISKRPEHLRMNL

With `CCc1nc(N[C@@H]2CNCC[C@H]2c2ccc(F)cc2)c2cccc(C(N)=O)c2n1` (racemic) [compound 133] as the compound, how does the IC50 read?
The IC50 was 3.6 nM.

Which IC50 does the source give for `Cc1nc(N[C@@H]2CNCC[C@H]2c2ccc(F)cc2)c2cccc(C(N)=O)c2n1` (racemic) [compound 134] here?
The IC50 was 4.2 nM.

With `COc1cccc([C@@H]2CCNC[C@H]2Nc2ncnc3c(C(N)=O)cccc23)c1` (racemic) [compound 135] as the compound, how does the IC50 read?
The IC50 was 4.3 nM.

For `Cc1nc(N[C@@H]2CNCC[C@H]2c2ccccc2F)c2cccc(C(N)=O)c2n1` (racemic) [compound 136], which IC50 is on record?
The IC50 was 210 nM.

With `Cc1nc(N[C@@H]2CNCC[C@H]2c2cccc(C(F)(F)F)c2)c2cccc(C(N)=O)c2n1` (racemic) [compound 138, 2-methyl-4-(((3R,4R)-4-(3-(trifluoromethyl)phenyl)piperidin-3-yl)amino)quinazoline-8-] as the compound, how does the IC50 read?
The IC50 was 2.7 nM.

`COc1ccc([C@@H]2CCNC[C@H]2Nc2ncnc3c(C(N)=O)cccc23)cc1OC` (racemic) [compound 139] was tested. Which IC50 did it give?
Its IC50 is 18 nM.

How did the IC50 turn out when `NC(=O)c1cccc2c(N[C@@H]3CNCC[C@H]3c3cc(F)cc(C(F)(F)F)c3)ncnc12` (racemic) [compound 140] was run?
The IC50 was 3.1 nM.

How did the IC50 turn out when `Cc1nc(N[C@@H]2CNCC[C@H]2c2ccc(C(F)(F)F)cc2)c2cccc(C(N)=O)c2n1` (racemic) [compound 141] was run?
Its IC50 is 2.9 nM.

Which IC50 does the source give for `CCc1nc(N[C@@H]2CNCC[C@H]2c2ccccc2F)c2cccc(C(N)=O)c2n1` (racemic) [compound 142] here?
The IC50 was 450 nM.

`CCc1nc(N[C@@H]2CNCC[C@H]2c2cccc(C)c2)c2cccc(C(N)=O)c2n1` (racemic) [compound 144] was tested. Which IC50 did it give?
The IC50 was 5 nM.

For `Cc1cc(C)cc(C2CCNCC2Nc2ncnc3c(C(N)=O)cccc23)c1` (racemic) [compound 145, 4-((4-(3,5-dimethylphenyl)piperidin-3-yl)amino)quinazoline-8-carboxamide], which IC50 is on record?
The IC50 was 10 nM.

`NC(=O)c1cc(F)cc2c(N[C@@H]3CNCC[C@H]3c3ccccc3)ncnc12` (racemic) [compound 146, 6-fluoro-4-(((3R,4R)-4-phenylpiperidin-3-yl)amino)quinazoline-8-carboxamide] was tested. Which IC50 did it give?
Its IC50 is 7.1 nM.

How did the IC50 turn out when `NC(=O)c1cccc2c(N[C@@H]3CNC[C@H]3C(=O)Nc3ccccc3)ncnc12` (relative stereo) [compound 26, trans-4-(4-Phenylcarbamoyl-pyrrolidin-3-ylamino)-quinazoline-8-carboxylic acid amide] was run?
Its IC50 is 22 nM.

Which IC50 does the source give for `NC(=O)c1cccc2c(NC3CNCC3c3ccccc3F)ncnc12` (stereo not drawn) [compound 4, 4-((4-(2-fluorophenyl)pyrrolidin-3-yl)amino)quinazoline-8-carboxamide] here?
The IC50 was 3.5 nM.

How did the IC50 turn out when `NC(=O)c1cccc2c(NC3CNCC3c3ccc(F)cc3)ncnc12` (stereo not drawn) [compound 5, 4-((4-(4-fluorophenyl)pyrrolidin-3-yl)amino)quinazoline-8-carboxamide] was run?
The IC50 was 2.6 nM.

Which IC50 does the source give for `COc1ccc(C2CNCC2Nc2ncnc3c(C(N)=O)cccc23)cc1` (stereo not drawn) [compound 6, 4-((4-(4-methoxyphenyl)pyrrolidin-3-yl)amino)quinazoline-8-carboxamide] here?
Its IC50 is 2 nM.

`COc1cccc(C2CNCC2Nc2ncnc3c(C(N)=O)cccc23)c1` (stereo not drawn) [compound 7, 4-((4-(3-methoxyphenyl)pyrrolidin-3-yl)amino)quinazoline-8-carboxamide] was tested. Which IC50 did it give?
The IC50 was 2.6 nM.

How did the IC50 turn out when `COc1ccccc1C1CNCC1Nc1ncnc2c(C(N)=O)cccc12` (stereo not drawn) [compound 8, 4-((4-(2-methoxyphenyl)pyrrolidin-3-yl)amino)quinazoline-8-carboxamide] was run?
The IC50 was 18 nM.

`Cc1nc(NC2CNCC2c2ccc(F)cc2)c2cccc(C(N)=O)c2n1` (stereo not drawn) [compound 17, 4-((4-(4-fluorophenyl)pyrrolidin-3-yl)amino)-2-methylquinazoline-8-carboxamide] was tested. Which IC50 did it give?
Its IC50 is 2.4 nM.

With `COc1ccc(C2CNCC2Nc2nc(C)nc3c(C(N)=O)cccc23)cc1` (stereo not drawn) [compound 18, 4-((4-(4-methoxyphenyl)pyrrolidin-3-yl)amino)-2-methylquinazoline-8-carboxamide] as the compound, how does the IC50 read?
Its IC50 is 1.8 nM.

Which IC50 does the source give for `NC(=O)c1cccc2c(NC3CNCC3c3cccc(F)c3)ccnc12` (stereo not drawn) [compound 21, 4-((4-(3-fluorophenyl)pyrrolidin-3-yl)amino)quinoline-8-carboxamide] here?
Its IC50 is 13 nM.

How did the IC50 turn out when `NC(=O)c1cccc2c(NC3CNCC3c3ccccc3F)ccnc12` (stereo not drawn) [compound 22, 4-((4-(2-fluorophenyl)pyrrolidin-3-yl)amino)quinoline-8-carboxamide] was run?
The IC50 was 9.4 nM.

Which IC50 does the source give for `COc1ccccc1C1CNCC1Nc1ccnc2c(C(N)=O)cccc12` (stereo not drawn) [compound 23, 4-((4-(2-methoxyphenyl)pyrrolidin-3-yl)amino)quinoline-8-carboxamide] here?
Its IC50 is 46 nM.

How did the IC50 turn out when `NC(=O)c1cccc2c(N[C@@H]3CNC[C@H]3c3cc(F)cc(C(F)(F)F)c3)ncnc12` [compound 46, 4-(((3S,4R)-4-(3-fluoro-5-(trifluoromethyl)phenyl)pyrrolidin-3-yl)amino)quinazoline-8-carboxamide] was run?
The IC50 was 2.6 nM.

How did the IC50 turn out when `NC(=O)c1cccc2c(N[C@H]3CNC[C@@H]3c3cc(F)cc(C(F)(F)F)c3)ncnc12` [compound 47, 4-(((3R,4S)-4-(3-fluoro-5-(trifluoromethyl)phenyl)pyrrolidin-3-yl)amino)quinazoline-8-carboxamide] was run?
Its IC50 is 160 nM.

How did the IC50 turn out when `NC(=O)c1cccc2c(N[C@@H]3CNC[C@H]3c3cccc(C(F)(F)F)c3)ncnc12` [compound 49, 4-(((3S,4R)-4-(3-(trifluoromethyl)phenyl)pyrrolidin-3-yl)amino)quinazoline-8-carboxamide] was run?
Its IC50 is 60 nM.

Which IC50 does the source give for `NC(=O)c1cccc2c(N[C@H]3CNC[C@@H]3c3cccc(C(F)(F)F)c3)ncnc12` [compound 50, 4-(((3R,4S)-4-(3-(trifluoromethyl)phenyl)pyrrolidin-3-yl)amino)quinazoline-8-carboxamide] here?
Its IC50 is 3 nM.

For `NC(=O)c1cccc2c(N[C@H]3CNC[C@@H]3c3ccc(C(F)(F)F)cc3)ncnc12` [compound 53, 4-(((3R,4S)-4-(4-(trifluoromethyl)phenyl)pyrrolidin-3-yl)amino)quinazoline-8-carboxamide], which IC50 is on record?
The IC50 was 66 nM.

Which IC50 does the source give for `NC(=O)c1cccc2c(N[C@H]3CNC[C@H]3c3ccc(C(F)(F)F)cc3)ncnc12` [compound 54, 4-(((3R,4R)-4-(4-(trifluoromethyl)phenyl)pyrrolidin-3-yl)amino)quinazoline-8-carboxamide] here?
The IC50 was 1.3 nM.

Which IC50 does the source give for `NC(=O)c1cccc2c(N[C@H]3CNC[C@@H]3c3cccc(OC(F)(F)F)c3)ncnc12` [compound 57] here?
Its IC50 is 2.1 nM.

`NC(=O)c1cccc2c(N[C@H]3CNC[C@H]3c3cccc(OC(F)(F)F)c3)ncnc12` [compound 58, 4-(((3R,4R)-4-(3-(trifluoromethoxy)phenyl)pyrrolidin-3-yl)amino)quinazoline-8-carboxamide] was tested. Which IC50 did it give?
Its IC50 is 0.98 nM.

Which IC50 does the source give for `NC(=O)c1cccc2c(N[C@H]3CNC[C@@H]3c3ccc(OC(F)(F)F)cc3)ncnc12` [compound 60, 4-(((3R,4S)-4-(4-(trifluoromethoxy)phenyl)pyrrolidin-3-yl)amino)quinazoline-8-carboxamide] here?
Its IC50 is 120 nM.

For `NC(=O)c1cccc2c(N[C@@H]3CNC[C@H]3c3ccc(OC(F)(F)F)cc3)ncnc12` [compound 61, 4-(((3S,4R)-4-(4-(trifluoromethoxy)phenyl)pyrrolidin-3-yl)amino)quinazoline-8-carboxamide], which IC50 is on record?
Its IC50 is 1.5 nM.

With `COc1ccc([C@@H]2CNC[C@H]2Nc2ncnc3c(C(N)=O)cccc23)cc1F` [compound 62, 4-(((3S,4R)-4-(3-fluoro-4-methoxyphenyl)pyrrolidin-3-yl)amino)quinazoline-8-carboxamide] as the compound, how does the IC50 read?
Its IC50 is 1.5 nM.

`COc1ccc([C@H]2CNC[C@@H]2Nc2ncnc3c(C(N)=O)cccc23)cc1F` [compound 63, 4-(((3R,4S)-4-(3-fluoro-4-methoxyphenyl)pyrrolidin-3-yl)amino)quinazoline-8-carboxamide] was tested. Which IC50 did it give?
The IC50 was 810 nM.

For `NC(=O)c1cccc2c(N[C@H]3CNC[C@@H]3c3ccccc3Cl)ncnc12` [compound 65, 4-(((3R,4S)-4-(2-chlorophenyl)pyrrolidin-3-yl)amino)quinazoline-8-carboxamide], which IC50 is on record?
The IC50 was 340 nM.

`NC(=O)c1cccc2c(N[C@@H]3CNC[C@H]3c3ccccc3Cl)ncnc12` [compound 66, 4-(((3S,4R)-4-(2-chlorophenyl)pyrrolidin-3-yl)amino)quinazoline-8-carboxamide] was tested. Which IC50 did it give?
The IC50 was 1.4 nM.

With `NC(=O)c1cccc2c(N[C@@H]3CNC[C@H]3c3cccc(F)c3)ncnc12` [compound 67, 4-(((3S,4R)-4-(3-fluorophenyl)pyrrolidin-3-yl)amino)quinazoline-8-carboxamide] as the compound, how does the IC50 read?
Its IC50 is 1.54 nM.

`NC(=O)c1cccc2c(N[C@H]3CNC[C@@H]3c3cccc(F)c3)ncnc12` [compound 68, 4-(((3R,4S)-4-(3-fluorophenyl)pyrrolidin-3-yl)amino)quinazoline-8-carboxamide] was tested. Which IC50 did it give?
The IC50 was 48 nM.

`NC(=O)c1cccc2c(N[C@H]3CNC[C@@H]3c3ccc4ncccc4c3)ncnc12` [compound 70, 4-(((3R,4S)-4-(quinolin-6-yl)pyrrolidin-3-yl)amino)quinazoline-8-carboxamide] was tested. Which IC50 did it give?
The IC50 was 3.3 nM.

With `NC(=O)c1cccc2c(N[C@@H]3CNC[C@H]3c3ccc4ncccc4c3)ncnc12` [compound 71, 4-(((3S,4R)-4-(quinolin-6-yl)pyrrolidin-3-yl)amino)quinazoline-8-carboxamide] as the compound, how does the IC50 read?
The IC50 was 62 nM.

With `COc1cccc([C@H]2CNC[C@@H]2Nc2ncnc3c(C(N)=O)cccc23)c1` [compound 72, 4-(((3R,4S)-4-(3-methoxyphenyl)pyrrolidin-3-yl)amino)quinazoline-8-carboxamide] as the compound, how does the IC50 read?
The IC50 was 360 nM.

Reference: patent US10087166B2, “Cyclic amine azaheterocyclic carboxamides” (Merck Patent GmbH, priority 2010, dated 2018)
